Common to all, as to assay type: cell-based
In experiment [1] the target is NACHT, LRR and PYD domains-containing protein 3 (Mus musculus) (UniProt Q8R4B8). In words: Inhibition of NLRP3 inflammasome activation in LPS-primed mouse BMDM cells assessed as reduction in LPS/ATP induced cleaved IL-1beta release in supernatant at 2 uM preincubated for 30 mins followed by LPS addition for 3 hrs prior to ATP addition for 30 mins by Western blot analysis. The conditions noted are these: time 4.0 hrs. A general note: Immunoblotting shows a protein as a band on a membrane.

In experiment [2] the target is NACHT, LRR and PYD domains-containing protein 3 (Homo sapiens) (UniProt Q96P20). The experiment can be described thus: Inhibition of NLRP3 inflammasome assembly in human THP-1 cells assessed as reduction in ASC oligomers formation.
The target in experiment [3] is NACHT, LRR and PYD domains-containing protein 3 (Mus musculus) (UniProt Q8R4B8). In words: Inhibition of NLRP3 inflammasome activation in LPS-primed mouse BMDM cells assessed as reduction in LPS/ATP induced cleaved IL-1beta release in supernatant preincubated for 30 mins followed by LPS addition for 3 hrs prior to ATP addition for 30 mins by Western blot analysis. The note with it: dose 4-10 µM, time 4.0 hrs, DDE = dose-dependent effect.

For experiment [4] the target is unchanged. In words: Inhibition of NLRP3 inflammasome activation in LPS-primed mouse BMDM cells assessed as reduction in LPS/ATP induced cleaved caspase 1 level in supernatant preincubated for 30 mins followed by LPS addition for 3 hrs prior to ATP addition for 30 mins by Western blot analysis. The note with it: dose 4-10 µM, time 4.0 hrs, DDE = dose-dependent effect.

For experiment [5] the target is unchanged. In words: Inhibition of NLRP3 inflammasome assembly in LPS/nigericin stimulated mouse BMDM cells assessed as reduction in NLRP3 specks. The conditions noted are these: concentration not given here.

Calls of active or inactive are those of the source. The calls are words filed in the database; no cut-off is given here.

Sequence of NACHT, LRR and PYD domains-containing protein 3 (Mus musculus) (Q8R4B8 whole entry, the tested form may be a part): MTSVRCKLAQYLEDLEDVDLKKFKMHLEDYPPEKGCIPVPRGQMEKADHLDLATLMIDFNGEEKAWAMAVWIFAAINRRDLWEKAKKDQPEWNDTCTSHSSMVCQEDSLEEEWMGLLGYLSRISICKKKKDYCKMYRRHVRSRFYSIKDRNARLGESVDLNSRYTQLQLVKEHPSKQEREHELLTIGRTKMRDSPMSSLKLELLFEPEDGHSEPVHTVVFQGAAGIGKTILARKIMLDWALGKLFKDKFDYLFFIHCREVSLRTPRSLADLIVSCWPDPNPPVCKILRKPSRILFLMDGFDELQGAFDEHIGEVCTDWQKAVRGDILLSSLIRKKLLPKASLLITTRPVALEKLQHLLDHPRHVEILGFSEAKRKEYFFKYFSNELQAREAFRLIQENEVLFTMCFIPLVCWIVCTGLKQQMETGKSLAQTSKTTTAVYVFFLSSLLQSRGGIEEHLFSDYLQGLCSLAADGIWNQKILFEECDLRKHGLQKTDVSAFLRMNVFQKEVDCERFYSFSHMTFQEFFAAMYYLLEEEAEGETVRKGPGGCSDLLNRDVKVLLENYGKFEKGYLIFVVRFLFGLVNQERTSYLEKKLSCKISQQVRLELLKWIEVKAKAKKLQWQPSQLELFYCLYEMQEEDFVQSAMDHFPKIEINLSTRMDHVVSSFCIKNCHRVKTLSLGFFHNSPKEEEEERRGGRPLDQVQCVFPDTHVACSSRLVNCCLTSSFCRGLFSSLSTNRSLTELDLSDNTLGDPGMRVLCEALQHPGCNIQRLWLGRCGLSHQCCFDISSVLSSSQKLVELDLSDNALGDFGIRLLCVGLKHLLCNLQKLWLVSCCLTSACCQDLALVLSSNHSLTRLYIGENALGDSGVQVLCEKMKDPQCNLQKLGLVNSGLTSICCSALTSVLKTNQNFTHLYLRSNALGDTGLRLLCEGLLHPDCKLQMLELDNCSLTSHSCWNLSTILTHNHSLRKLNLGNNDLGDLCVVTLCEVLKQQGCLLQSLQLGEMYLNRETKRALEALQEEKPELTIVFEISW
Sequence of NACHT, LRR and PYD domains-containing protein 3 (Homo sapiens) (Q96P20 whole entry, the tested form may be a part): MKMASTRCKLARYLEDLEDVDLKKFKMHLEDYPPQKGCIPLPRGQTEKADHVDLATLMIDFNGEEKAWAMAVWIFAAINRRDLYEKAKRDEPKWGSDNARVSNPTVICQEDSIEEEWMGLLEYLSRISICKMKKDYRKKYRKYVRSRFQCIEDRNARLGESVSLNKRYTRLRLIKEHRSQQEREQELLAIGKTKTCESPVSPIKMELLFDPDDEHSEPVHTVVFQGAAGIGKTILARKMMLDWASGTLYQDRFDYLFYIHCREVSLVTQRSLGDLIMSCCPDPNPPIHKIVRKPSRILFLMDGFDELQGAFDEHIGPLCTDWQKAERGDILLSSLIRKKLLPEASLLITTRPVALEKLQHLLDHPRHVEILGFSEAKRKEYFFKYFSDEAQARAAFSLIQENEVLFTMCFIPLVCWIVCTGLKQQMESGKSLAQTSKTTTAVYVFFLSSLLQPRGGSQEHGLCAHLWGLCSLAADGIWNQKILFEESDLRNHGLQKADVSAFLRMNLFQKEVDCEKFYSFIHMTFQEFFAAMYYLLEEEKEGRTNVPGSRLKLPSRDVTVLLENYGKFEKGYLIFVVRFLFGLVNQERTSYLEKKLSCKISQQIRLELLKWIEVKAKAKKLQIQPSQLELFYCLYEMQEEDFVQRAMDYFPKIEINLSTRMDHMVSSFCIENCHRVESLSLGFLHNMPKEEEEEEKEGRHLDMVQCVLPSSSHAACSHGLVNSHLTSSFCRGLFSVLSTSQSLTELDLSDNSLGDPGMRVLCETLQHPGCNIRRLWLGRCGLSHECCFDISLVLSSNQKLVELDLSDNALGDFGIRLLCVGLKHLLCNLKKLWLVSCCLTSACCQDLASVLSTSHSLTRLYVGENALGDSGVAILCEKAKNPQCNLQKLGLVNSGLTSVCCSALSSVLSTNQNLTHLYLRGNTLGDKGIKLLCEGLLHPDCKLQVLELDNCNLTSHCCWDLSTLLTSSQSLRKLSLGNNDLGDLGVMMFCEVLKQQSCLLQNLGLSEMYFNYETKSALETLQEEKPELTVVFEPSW

As for `COc1ccccc1CN1C(=O)/C(=C/c2ccc(S(N)(=O)=O)cc2)SC1=S`, the inhibition (as a rule, the share of the control response that was lost under treatment) in experiment [1] is “Active”.
As for `COc1ccc(Cl)c(CN2C(=O)/C(=C/c3ccc(S(N)(=O)=O)cc3)SC2=S)c1`, the inhibition entry in experiment [2] was “Active”. For the same compound, the inhibition result in experiment [3] is “Dde”; in experiment [4], “Dde”; in experiment [5], 60%.
Regarding `CCCCOc1ccc(Cl)cc1CN1C(=O)/C(=C/c2ccc(S(N)(=O)=O)cc2)SC1=S`, the inhibition entry in experiment [1] is “Active”.
Turning to `COc1ccc(Cl)cc1CN1C(=O)/C(=C/c2ccc(S(N)(=O)=O)cc2)SC1=S`, in experiment [2], the inhibition result is “Active”. In addition, the inhibition result is “Dde” in experiment [3], “Dde” in experiment [4] and 60% in experiment [5].
Turning to `NS(=O)(=O)c1ccc(/C=C2\SC(=S)N(Cc3cccc(Cl)c3)C2=O)cc1`, in experiment [1], the inhibition result was “Active”.

(Values after ChEMBL document CHEMBL5120798, “Design and synthesis of an N-benzyl 5-(4-sulfamoylbenzylidene-2-thioxothiazolidin-4-one scaffold as a novel NLRP3 inflammasome inhibitor” (Bioorg Med Chem Lett, 2022).)
